Legend:
Format in all cases: in vivo
[1] = tested on: Monocotyledonous and dicotyledonous test plants; assay: Example B1 herbicidal action, application post-emergence (Table B1a); conditions: 250 g/ha, evaluated after 3 weeks, scale 0-10
In short: (§1)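 Visual damage rating, 10 = plant dead and 0 = unharmed, taken at 3 weeks for post-emergence and 4 weeks for pre-emergence treatment. Application by spray of formulated aqueous solution either immediately after sowing or at 8–9 days' growth, with mono- and dicot plants kept in a greenhouse.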

[2] = tested on: Monocotyledonous and dicotyledonous test plants; assay: Example B1 herbicidal action, application pre-emergence (Table B1b); conditions: 250 g/ha, evaluated after 4 weeks
In short: as §1

[3] = tested on: Monocotyledonous and dicotyledonous test plants; assay: Example B2 herbicidal action, application post-emergence, 96-cell seed trays (Table B2a); conditions: 1000 g/ha
Method: Monocotyledonous and dicotyledonous test plants were sown in sterilised standard soil in seed trays each having 96 cells. After one day (pre-emergence) or after 8 to 9 days cultivation (post-emergence) under controlled conditions in a climatic chamber (cultivation at 17/23° C.; 13 hours light; 50-60% humidity; after application at 19/24° C.), the plants were treated with an aqueous spray solution of 1000 mg/l of the active ingredient used (rate of application: […]; incl. 10% DMSO as solvent). The plants were grown on in the climatic chamber until the test was evaluated (10 total damage to plant, 0=no damage to plant) after 9 or 13 days.

[4] = tested on: Monocotyledonous and dicotyledonous test plants; assay: Example B2 herbicidal action, application pre-emergence, 96-cell seed trays (Table B2b); conditions: 1000 g/ha
In short: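 Mono- and dicot plants in sterilised soil, 96-cell trays, sprayed 1 day after sowing (pre-emergence) or after 8–9 days growth (post-emergence) with aqueous 1000 mg/l active ingredient, 10% DMSO; climatic chamber 17/23° C, 13 h light. Damage scored 0–10 after 9 or 13 days.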

maize [5] = assay: Example E1 pre-emergent safening test on maize (Tables E1 Marista, E2 Lorenzo); conditions: after 14 days
Method: The test plants were sown in seed trays under greenhouse conditions. A standard earth was used as the culture substrate. In a pre-emergent stage, the herbicides were applied both by themselves and in a mixture with safeners to the soil surface. The application was carried out with an aqueous suspension of the test substances, prepared from a 25% wettable powder (Example F3, b according to WO 97/34485) or from a suspension concentrate (Example F8 according to WO 97/34485), to achieve a field equivalent of 200 l/ha. The tests were evaluated after 14 days (100%=plants completely dead; 0%=no phytotoxic action on the plants).

maize [6] = assay: Example F1 post-emergent safening test on maize (Table F1, Marista 11f); conditions: post-emergent (GS 11), after 28 days
Method: The test plants were sown in containers under glasshouse conditions. A standard earth was used as the culture substrate. In a maize growth stage of one leaf (GS 11), the herbicides were applied both by themselves and in a mixture with safeners to the soil and leaf surface. The application was carried out with an aqueous suspension of the test substances, prepared from a 25% wettable powder (Example F3,b according to WO 97/34485) or a suspension concentrate (Example F8 according to WO 97/34485), to achieve a field equivalent of 200 l/ha. The tests were evaluated after 28 days (100%=plants completely dead; 0%=no phytotoxic action on the plants).

SMILES | herbicidal damage rating, Abutilon [1] | herbicidal damage rating, Amaranthus [1] | herbicidal damage rating, Digitaria [1] | herbicidal damage rating, Panicum [1] | herbicidal damage rating, Setaria [1] | herbicidal damage rating, Sida [1] | herbicidal action (damage rating 0-10), Amaranthus [2] | herbicidal action (damage rating 0-10), Digitaria [2] | herbicidal action (damage rating 0-10), Panicum [2] | herbicidal action (damage rating 0-10), Setaria [2] | herbicidal action (damage rating 0-10), Sida [2] | herbicidal action (damage rating 0-10), Agrostis [3] | herbicidal action (damage rating 0-10), Amaranthus [3] | herbicidal action (damage rating 0-10), Poa [3] | herbicidal action (damage rating 0-10), Setaria [3] | herbicidal action (damage rating 0-10), Agrostis [4] | herbicidal action (damage rating 0-10), Digitaria [4] | herbicidal action (damage rating 0-10), Poa [4] | herbicidal action (damage rating 0-10), Setaria [4] | other results
CC1(C)CC([S+]([O-])C(Cl)c2c(F)cccc2Cl)=NO1 (single isomer, unassigned) [1.34] | 3 | 5 | 5 | 8 | 6 | 3 | 9 | 9 | 10 | 10 | 7 | 8 | 5 | 8 | 8 |  |  |  |  | 
CC1(C)CC(S(=O)(=O)C(F)c2c(F)cccc2F)=NO1 (stereo not shown) [1.06] |  |  |  |  |  |  | 10 | 5 | 10 | 9 | 7 | 8 | 8 | 8 | 7 | 10 | 10 | 10 | 10 | 
Cn1nc(C(F)(F)F)c(C(Cl)S(=O)(=O)C2=NOC(C)(C)C2)c1OCC(F)(F)F (stereo not shown) [2.04] | 7 | 4 | 4 | 8 | 6 | 6 | 10 | 10 | 10 | 10 | 8 |  |  |  |  |  |  |  |  | phytotoxic action on maize (Lorenzo) (maize [5]; herbicide alone 100 g/ha): 2.5%; phytotoxic action on maize (Marista) (maize [5]; herbicide alone 100 g/ha): 10%; phytotoxic action on maize (Lorenzo) (maize [5]; herbicide alone 200 g/ha): 17.5%; phytotoxic action on maize (Marista) (maize [5]; herbicide alone 200 g/ha): 15%
Cn1nc(C(F)(F)F)c(C(Br)S(=O)(=O)C2=NOC(C)(C)C2)c1OCC(F)(F)F (stereo not shown) [2.10] | 6 | 8 | 6 | 7 | 5 | 4 | 10 | 10 | 10 | 10 | 8 |  |  |  |  |  |  |  |  | phytotoxic action on maize (Marista 11f) (maize [6]; herbicide alone 37.5 g/ha): 20%; phytotoxic action on maize (Marista 11f) (maize [6]; herbicide alone 75 g/ha): 50%; phytotoxic action on maize (Marista 11f) (maize [6]; herbicide alone 150 g/ha, 100%=plants completely dead): 75%
CC1(C)CC(S(=O)(=O)C(Cl)c2c(F)cccc2F)=NO1 (stereo not shown) [Compound No. 1.07, 3-[chloro-(2,6-difluoro-phenyl)-methanesulfonyl]-5,5-dimethyl-4,5-dihydroisoxazole] | 5 | 3 | 5 | 7 | 7 | 2 | 8 | 10 | 10 | 10 | 7 | 8 | 7 | 8 | 7 | 10 | 10 | 10 | 10 | 

Source: patent US8680290B2, “Isoxazoline derivatives and their use as herbicides” (Syngenta Limited, priority 2004, dated 2014)
